One data set relates to Escherichia coli. The experiment in a line: Photoinactivation of Escherichia coli in TC (colony forming assay). Format: cell-based. The settings on record: 1 mM delta-Ala. The procedure: (§1) In the experiments described, TC was used which had been obtained from the buffy coats of donor blood and which was suspended in plasma or in a conventional storage medium (T-sol) with approximately 40% plasma. A system fitted with xenon lamps and in which the emitted UV fraction was masked out by a window glass filter was used for the exposure. Staphylococcus (S.) epidermidis was generally used as the test bacterium. Bacteria titres were determined using a colony forming assay. These are given in “colony forming units per ml” (CFU/ml).
(§2) In the experiments on the inactivation of bacteria TC aliquots of respectively 60 ml located in PVC storage bags having a nominal volume of 500 ml were treated. After adding delta-Ala or the methyl ester of delta-Ala (see Table 1) the samples were pre-incubated for one hour at room temperature in the thrombocyte rotator and then exposed to light. In the experiments on the inactivation of leukocytes the samples were pre-incubated overnight (i.e., for approximately 16-20 h) or for 4 hours. The light energy deposited in the samples is given in kilojoules per m^2 (kJ/m^2). 3000 kJ/m^2 corresponds to an exposure time of about one hour. Each experiment was carried out at least twice.

In the next data set the test system is thrombocytes. The experiment in a line: Functional in-vitro properties of TC after delta-Ala and exposure to light (hypotonic shock reaction, collagen-induced aggregation). It counts as cell-based. The conditions noted are these: after treatment with delta-Ala and subsequent exposure to light.
The subject of the next data set is S. epidermidis. The experiment in a line: Photoinactivation of S. epidermidis in TC (colony forming assay). It counts as cell-based, Staphylococcus epidermidis. The conditions noted are these: for Bacteria titre after light, Exp. 1 / Bacteria titre after light, Exp. 2: compound 2 mM, light energy input 3000 kJ/m^2. The procedure: as §1, §2
In order to determine the quantity of light sufficient to largely inactivate S. epidermidis, i.e., by at least 2 log10 grades, the following experiments were carried out: 1000 to 1500 CFU/ml S. epidermidis was added to TC, either in storage medium having a plasma content of approximately 40% or in plasma; delta-Ala was then added in a concentration of 0.25 mM (plasma-reduced TC) or 1 mM (TC with approximately 100% plasma). After pre-incubating for one hour at room temperature, the samples were exposed to different amounts of light. The results are plotted in FIGS. 3 and 4.

A further data set relates to Pseudomonas aeroginosa. The data set is described as follows: Photoinactivation of Pseudomonas aeroginosa in TC (colony forming assay). The conditions noted are these: 1 mM delta-Ala. Format: cell-based. As for the experimental part:
as §1, §2

The test system of the next data set is T lymphocytes. The experiment in a line: Photoinactivation of T lymphocytes in TC (Con A proliferation assay, BRDU incorporation). Format: cell-based. The conditions noted are these: pre-incubation approx. 16 h, light energy input 2000 kJ/m^2 (FIG. 5). As for the experimental part: as §2
Another data set concerns Enterobacter cloacae. The data set is described as follows: Photoinactivation of Enterobacter cloacae in TC (colony forming assay). It counts as cell-based. The conditions noted are these: 1 mM delta-Ala. As for the experimental part: as §1, §2
Another data set relates to Staphylococcus aureus. The experiment in a line: Photoinactivation of Staphylococcus aureus in TC (colony forming assay). The conditions noted are these: 1 mM delta-Ala. Format: cell-based. The procedure: as §1, §2
For a further data set, the system named is Yersinia enterocolitica. The experiment in a line: Photoinactivation of Yersinia enterocolitica in TC (colony forming assay). Format: cell-based. The settings on record: 1 mM delta-Ala. As for the experimental part: as §1, §2
Another data set concerns Serratia marescens. The experiment in a line: Photoinactivation of Serratia marescens in TC (colony forming assay). Format: cell-based. The conditions noted are these: 1 mM delta-Ala. The procedure: as §1, §2
Where [1] appears, read: after exposure, 1500 kJ/m^2, average of two experiments.
Setting [2] is: before exposure, average of two experiments.

On to `NCC(=O)CCC(=O)O` [Delta-Ala, 6-aminolevulinic acid], for which the “Bacteria titre after exposure” value in the data set with Escherichia coli (setting [1]) is 3 CFU/ml; in the data set on S. epidermidis (TC, 1 mM delta-Ala, after exposure, 1500 kJ/m^2, average of two experiments), 2 CFU/ml; in the data set with Pseudomonas aeroginosa (setting [1]), 1 CFU/ml; with Enterobacter cloacae (setting [1]) it was 1280 CFU/ml; in the data set with Staphylococcus aureus (setting [1]), 51 CFU/ml; in the data set on Yersinia enterocolitica (setting [1]) it was 1 CFU/ml. The “Bacteria titre after exposure” value with Serratia marescens (setting [1]) stood at 1 CFU/ml. Moreover, the “Bacteria titre before exposure” value came out at 11300 CFU/ml with Escherichia coli (setting [2]); 2440 CFU/ml with S. epidermidis (TC, 1 mM delta-Ala, before exposure, average of two experiments); 700 CFU/ml with Pseudomonas aeroginosa (setting [2]); 24500 CFU/ml in the data set on Enterobacter cloacae (setting [2]); 2000 CFU/ml with Staphylococcus aureus (setting [2]); 4650 CFU/ml with Yersinia enterocolitica (setting [2]). Moreover, in the data set with Serratia marescens (setting [2]), the “Bacteria titre before exposure” value is 2500 CFU/ml. Also, in the data set with thrombocytes, the “Functional in-vitro properties of TC and other thrombocyte parameters after treatment” value is listed as “had not changed”. In the data set with S. epidermidis (TC in 100% plasma), the “Bacteria titre after light, Exp. 1” value is listed as 5 CFU/ml. In the data set with S. epidermidis (TC in 100% plasma), the “Bacteria titre after light, Exp. 2” value came out at 3.5 CFU/ml. In addition, the “delta-Ala concentration sufficient for inactivation” value in the data set on S. epidermidis (plasma-reduced TC, light energy input 3000 kJ/m^2 (FIG. 2)) was at most 0.1 mM. In addition, the “Light energy to be irradiated for extensive inactivation of the bacteria” value in the data set with S. epidermidis (thrombocytes suspended in 100% plasma, 1 mM delta-Ala, pre-incubation one hour (FIG. 4)) is “approximately 3000 kJ/m^2”. Further, in the data set with T lymphocytes, the “Required concentration of delta-Ala for photoinactivation of T lymphocytes” value was “higher than 1 mM”. Also, the “Reduction of infectious titre” value in the data set on Enterobacter cloacae (1500 kJ/m^2) is on record as “approximately 95%”; in the data set with Staphylococcus aureus (1500 kJ/m^2), about 97%.
As to `COC(=O)CCC(=O)CN` [Methyl-Ala, delta-Ala methyl ester], in the data set on S. epidermidis (TC in 100% plasma, 2 mM, 3000 kJ/m^2 (Table 1)), the “Efficacy of inactivation of S. epidermidis compared with delta-Ala” value is “the same efficacy”. Besides, in the data set with S. epidermidis (TC in 100% plasma), the “Bacteria titre after light, Exp. 1” value turned out to be 1.5 CFU/ml and the “Bacteria titre after light, Exp. 2” value is on record as 4 CFU/ml.
